Measured values reported in patent publication US6541463B1, “Inhibitors of type 5 and type 3 17β-hydroxysteroid dehydrogenase and methods for their use” (Endorecherche, Inc., priority 1998, dated 2003).

What was measured:
[1] = target: T1, human type 5 17β-hydroxysteroid dehydrogenase (Homo sapiens, UniProt P42330); assay: Reversibility of human type 5 17β-HSD inhibitory activity (preincubation, wash); assay type: cell-based; settings: Table 4′
T1 construct: screen again a human placental λgt11 cDNA to get the full length cDNA clone; expressed in transfected cells; host or cells: human embryonal kidney 293 cells (pCMV / pCMV-neo vector)
T1 sequence (P42330 1-323): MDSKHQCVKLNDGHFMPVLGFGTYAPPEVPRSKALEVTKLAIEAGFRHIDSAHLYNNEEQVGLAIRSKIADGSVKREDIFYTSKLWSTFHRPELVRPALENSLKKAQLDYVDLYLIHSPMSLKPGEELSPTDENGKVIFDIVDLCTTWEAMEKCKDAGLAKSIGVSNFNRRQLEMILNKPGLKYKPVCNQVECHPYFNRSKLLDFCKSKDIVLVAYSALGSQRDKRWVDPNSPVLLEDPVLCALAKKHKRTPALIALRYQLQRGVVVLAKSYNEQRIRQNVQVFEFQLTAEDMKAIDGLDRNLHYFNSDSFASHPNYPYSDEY
Description: In column 3, the reversibility of the inhibition of type 5 17β-hydroxysteroid dehydrogenase activity expressed in percentage of control is reported. The manner in which the reversibility is determined is described in “Efficacy of Preferred Inhibitors: V. Reversibility of Human Type 5 17β-HSD Inhibitory Activity”. Lower number is desirable. Blank means that a determination was not done.
Determination of activity was performed as described (Luu-The et al., Mol. Endocrionol. 4: 268-275, 1990, Lachance et al., J. Biol. Chem. 265: 20469-20475, 1990; Luu-The et al., DNA & Cell Biol. 14: 511-518, 1995). Briefly, 0.1 μM of the indicated ^14C-labeled substrate (Dupont Inc. (Canada), namely, DHEA, 4-androstene-3,17-dione (Δ4), in absence or presence of increasing concentration of preferred inhibitor of the invention, was added to freshly changed culture medium in a 6-well culture plate. After incubation for 1 h, the steroids were extracted twice with 2 ml of ether. The organic phase were pooled and evaporated to dryness. The steroids were solubilized in 50 μl of dichloromethane, applied to Silica gel 60 thin layer chromatography (TLC) plate (Merck, Darmstad, Germany) then separated by migration in the toluene-acetone (4:1) solvent system. […] Transfection could be also performed with HeLa, SW-13, 293, COS-1 cells, the preferred cell line is 293 cells.
The reversibility assay was performed as described above for the standard type 5 17β-HSD enzymatic assay, except that before adding the ^14C-labeled substrate, the cells were preincubated with 0.3 μM of the indicated inhibitor for 1 h, (or the indicated time interval), followed by two washes with phosphate saline buffer (PBS).

[2] = target: T2, human type 1 17β-hydroxysteroid dehydrogenase (Homo sapiens, UniProt P14061); assay: Enzymatic assay for type 1 17β-HSD; assay type: biochemical; settings: Table 4′; read-out: Inhibition Type 1 17β-HSD Activity IC50
T2 construct: expressed in transfected cells; host or cells: 293 cells, transient transfection; 100 000×g supernatant (cytosol)
T2 sequence (P14061 1-328): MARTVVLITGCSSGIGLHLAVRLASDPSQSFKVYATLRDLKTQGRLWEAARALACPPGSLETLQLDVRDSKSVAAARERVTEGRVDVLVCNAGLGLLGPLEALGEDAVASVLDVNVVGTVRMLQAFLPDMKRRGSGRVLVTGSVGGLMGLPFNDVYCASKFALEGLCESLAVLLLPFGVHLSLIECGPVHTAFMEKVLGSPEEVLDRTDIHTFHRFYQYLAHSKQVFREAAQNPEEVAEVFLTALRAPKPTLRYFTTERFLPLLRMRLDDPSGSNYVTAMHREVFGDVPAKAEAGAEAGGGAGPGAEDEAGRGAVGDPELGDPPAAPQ
Description: (§1) The manner in which IC50 was determined is described in “Efficacy of Preferred Inhibitors: VI. Enzymatic assay for types 1, 2, and 3 17β-HSD and types 1 and 3 3α-HSD”. […] numbers of IC50 are desirable. Blank means that a determination was not done. The % of inhibition at the concentration of 3.10^−6M determined in preliminary screening test is reported in square braquets.
(§2) Enzyme sources. 293 cells transiently transfected with expression vectors encoding types 1, 2 and 3 17β-HSD (Luu-The et al., J. Steroid Biochem. Molec. Biol., 55: 581-587, 1995), types 1 and 2 5α-reductase (Luu-The et al., J. Invest. Dermatol., 102: 221-226, 1994) and types 1 and 3 3α-HSD (Dufort et al. Biochem. Biophys. Res. Commun. 228: 474-479, 1996), using the calcium phosphate procedure (Kingston et al., In: Current Protocols in Molecular Biology. Edited by E. M. Ausbel, R. Brent, R. E. Kingston, D. D. Moore, J. G. Seidman, J. A. Smith, K. Struhl. John Wiley & Sons, New York, pp. 9.1.1-9.1.9, 1991; Luu-The et al., J. Invest. Dermatol., 102: 221-226, 1994). For assays using cell subfractions, cells were sonicated in 50 mM sodium phosphate buffer (pH 7.4), containing 20% glycerol and 1 mM EDTA and centrifuged at 10 000×g for 30 min before centrifugation for 100 000×g for 1 h to separate the mitochondrial and microsomal fractions, respectively. The cytosol fractions (100 000×g supernatant) was used to determine type 1 activity while the microsomal fraction (pellet at 100 000×g) was used for measurement of types 2 and 3 17β-HSD activities.
(§3) Incubation. The enzymatic reaction was carried out at 37° C. in 1 ml of 50 mM sodium phosphate buffer, pH 7.4, containing 20% glycerol, 1 mM EDTA, and 2 mM cofactors (NADPH or AND^+) for 1 h in the presence of 0.1 μM ^14C-labeled substrate: estrone and 4-dione for types 1 and […] 17β-HSD, respectively, testosterone for type 2 17β-HSD as well as types 1 and 2 5α-reductases, DHT for types 1 and 3 3α-HSD activities, and the indicated concentration of inhibitor.
(§4) Extraction of metabolites, migration on TLC and quantification were as described above for the assay of type 5 17β-HSD.

[3] = target: T3, human type 3 3α-hydroxysteroid dehydrogenase (Homo sapiens, UniProt P52895); assay: Enzymatic assay for type 3 3α-HSD; assay type: biochemical; settings: Table 4′; read-out: Inhibition Type 3 3α-HSD Activity IC50
T3 construct: expressed in transfected cells; host or cells: 293 cells, transient transfection
T3 sequence (P52895 1-323): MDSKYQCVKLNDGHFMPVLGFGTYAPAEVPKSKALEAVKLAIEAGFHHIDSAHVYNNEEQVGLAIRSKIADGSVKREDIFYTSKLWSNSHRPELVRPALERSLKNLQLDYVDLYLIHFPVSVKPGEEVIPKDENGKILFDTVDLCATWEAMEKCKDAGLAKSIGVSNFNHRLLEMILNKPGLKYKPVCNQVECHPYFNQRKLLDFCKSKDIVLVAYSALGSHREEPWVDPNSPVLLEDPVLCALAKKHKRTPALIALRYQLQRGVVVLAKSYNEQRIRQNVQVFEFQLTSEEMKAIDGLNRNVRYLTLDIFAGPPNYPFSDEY
Description: as §1, §2, §3, §4

With `COCCOc1cc2c(cc1C(N)=O)C1CC[C@@]3(C)C(CC[C@@]34CCC(C)(C)C(=O)O4)C1CC2` (stereo partly drawn) [EM-1424, 2-Carbamoyl-3-(2″-methoxyethyloxy)-1,3,5(10)-estratrien 17(R)-spiro-2′-(5′,5′-dimethyl-6′-oxo)tetrahydropyran] the “Reversibility ((%) of control)” value [1] was 17 % of control, the IC50 [2] was > 10 µM and the IC50 [3] was > 10 µM.
